According to US20140171357A1, “VANCOMYCIN DERIVATIVES” (Seachald Pharmaceuticals, Inc., priority 2011, published 2014):
In brackets after ≈: the same amount, converted by molar mass.

Tests used:
[1] = tested on: methicillin-susceptible S. aureus (MSSA, 22); experiment: MIC broth microdilution, MSSA; conditions: for MIC 50% / MIC 90%: MSSA (22)
[2] = tested on: methicillin-resistant S. aureus (MRSA, 22); experiment: MIC broth microdilution, MRSA; conditions: for MIC 50% / MIC 90%: MRSA (22)
[3] = tested on: vancomycin-intermediate S. aureus (VISA, 5); experiment: MIC broth microdilution, VISA
[4] = tested on: vancomycin-resistant S. aureus (VRSA, 6); experiment: MIC broth microdilution, VRSA
[5] = tested on: heterogeneous VISA (hVISA, 10); experiment: MIC broth microdilution, hVISA
S. pneumoniae (22) = experiment: MIC broth microdilution, S. pneumoniae; conditions: S. pneumoniae (22); MHB + lysed horse blood
[6] = tested on: Staphylococcus epidermidis (43 strains); experiment: MIC broth microdilution, S. epidermidis; conditions: for MIC 50% / MIC 90%: S. epidermidis (43)
[7] = tested on: VanA vancomycin-resistant E. faecium (10); experiment: MIC broth microdilution, VanA E. faecium; conditions: for MIC 50% / MIC 90%: E. faecium, VanA (10)
[8] = tested on: VanB vancomycin-resistant E. faecium (10); experiment: MIC broth microdilution, VanB E. faecium; conditions: for MIC 50% / MIC 90%: E. faecium, VanB (10)
S. aureus ATCC 25923 = experiment: Neutropenic murine thigh infection model; conditions: for AUCc-t (AUC difference between control and treated animals): 24 h time kill
[9] = tested on: VanA vancomycin-resistant E. faecalis (11); experiment: MIC broth microdilution, VanA E. faecalis; conditions: for MIC 50% / MIC 90%: E. faecalis, VanA (11)
[10] = tested on: VanB vancomycin-resistant E. faecalis (12); experiment: MIC broth microdilution, VanB E. faecalis; conditions: for MIC 50% / MIC 90%: E. faecalis, VanB (12)
[11] = tested on: Staphylococcus aureus (65 strains); experiment: MIC broth microdilution, S. aureus all isolates; conditions: for MIC 50% / MIC 90%: S. aureus (65), all resistance subsets
[12] = tested on: β-hemolytic streptococci (23); experiment: MIC broth microdilution, β-hemolytic streptococci; conditions: β-hemolytic streptococci (23); MHB + lysed horse blood
VanC enterococci (22) = experiment: MIC broth microdilution, vanC-carrying enterococci; conditions: for MIC 50% / MIC 90%: VanC enterococci (22)
[13] = tested on: vancomycin-susceptible E. faecium (21); experiment: MIC broth microdilution, vancomycin-susceptible E. faecium; conditions: for MIC 50% / MIC 90%: E. faecium, vancomycin-susceptible (21)
[14] = tested on: vancomycin-susceptible E. faecalis (23); experiment: MIC broth microdilution, vancomycin-susceptible E. faecalis; conditions: for MIC 50% / MIC 90%: E. faecalis, vancomycin-susceptible (23)
[15] = 1 mg/kg single intraperitoneal dose
[16] = 4 mg/kg single intraperitoneal dose
[17] = 16 mg/kg single intraperitoneal dose

Molecule: CNC(CC(C)C)C(=O)NC1C(=O)NC(CC(N)=O)C(=O)NC2C(=O)NC3C(=O)NC(C(=O)NC(C(=O)NCCOCCOCCN)c4cc(O)cc(O)c4-c4cc3ccc4O)C(O)c3ccc(c(Cl)c3)Oc3cc2cc(c3OC2OC(CO)C(O)C(O)C2OC2CC(C)(NCc3ccc(-c4ccc(Cl)cc4)cc3)C(O)C(C)O2)Oc2ccc(cc2Cl)C1O (stereo not drawn) [Compound 9]
- MIC 50% [1]: 0.12 µg/mL (≈ 0.0674 µM)
- MIC 90% [1]: 0.12 µg/mL (≈ 0.0674 µM)
- MIC 50% [2]: 0.12 µg/mL (≈ 0.0674 µM)
- MIC 90% [2]: 0.12 µg/mL (≈ 0.0674 µM)
- MIC 50% [3]: 0.25 µg/mL (≈ 0.14 µM)
- MIC 50% [4]: 4 µg/mL (≈ 2.25 µM)
- MIC 50% [5]: 0.12 µg/mL (≈ 0.0674 µM)
- MIC 90% [5]: 0.12 µg/mL (≈ 0.0674 µM)
- MIC 50% (S. pneumoniae (22)): 0.06 µg/mL
- MIC 90% (S. pneumoniae (22)): 0.06 µg/mL
- MIC 50% [6]: 0.06 µg/mL (≈ 0.0337 µM)
- MIC 90% [6]: 0.06 µg/mL (≈ 0.0337 µM)
- MIC 50% [7]: 1 µg/mL (≈ 0.562 µM)
- MIC 90% [7]: 2 µg/mL (≈ 1.12 µM)
- MIC 50% [8]: 0.06 µg/mL (≈ 0.0337 µM)
- MIC 90% [8]: 0.12 µg/mL (≈ 0.0674 µM)
- Max Kill (maximum decrease from initial infection level) (S. aureus ATCC 25923; [15]): 0.98 Log10 CFU/thigh
- AUCc-t (AUC difference between control and treated animals) (S. aureus ATCC 25923; [15]): 7.4 (Log10 CFU/thigh)/hr
- Max Kill (maximum decrease from initial infection level) (S. aureus ATCC 25923; [16]): 0.5 Log10 CFU/thigh
- AUCc-t (AUC difference between control and treated animals) (S. aureus ATCC 25923; [16]): 17.2 (Log10 CFU/thigh)/hr
- Max Kill (maximum decrease from initial infection level) (S. aureus ATCC 25923; [17]): −0.01 Log10 CFU/thigh
- AUCc-t (AUC difference between control and treated animals) (S. aureus ATCC 25923; [17]): 24.6 (Log10 CFU/thigh)/hr
- MIC 50% [9]: 4 µg/mL (≈ 2.25 µM)
- MIC 90% [9]: 8 µg/mL (≈ 4.49 µM)
- MIC 50% [10]: 0.25 µg/mL (≈ 0.14 µM)
- MIC 90% [10]: 0.25 µg/mL (≈ 0.14 µM)
- MIC 50% [11]: 0.12 µg/mL (≈ 0.0674 µM)
- MIC 90% [11]: 0.5 µg/mL (≈ 0.281 µM)
- MIC 50% [12]: 0.06 µg/mL
- MIC 90% [12]: 0.12 µg/mL
- MIC 50% (VanC enterococci (22)): 0.12 µg/mL (≈ 0.0674 µM)
- MIC 90% (VanC enterococci (22)): 0.5 µg/mL (≈ 0.281 µM)
- MIC 50% [13]: 0.06 µg/mL (≈ 0.0337 µM)
- MIC 90% [13]: 0.12 µg/mL (≈ 0.0674 µM)
- MIC 50% [14]: 0.12 µg/mL (≈ 0.0674 µM)
- MIC 90% [14]: 0.25 µg/mL (≈ 0.14 µM)

Molecule: CN[C@H](CC(C)C)C(=O)N[C@H]1C(=O)N[C@@H](CC(N)=O)C(=O)N[C@H]2C(=O)N[C@H]3C(=O)N[C@H](C(=O)N[C@H](C(=O)O)c4cc(O)cc(O)c4-c4cc3ccc4O)[C@H](O)c3ccc(c(Cl)c3)Oc3cc2cc(c3O[C@@H]2O[C@H](CO)[C@@H](O)[C@H](O)[C@H]2O[C@H]2C[C@](C)(N)[C@H](O)[C@H](C)O2)Oc2ccc(cc2Cl)[C@H]1O [Vancomycin]
- MIC50 ([1]; Staphylococcus aureus, MSSA): 0.5 µg/mL (≈ 0.345 µM)
- MIC90 ([1]; Staphylococcus aureus, MSSA): 1 µg/mL (≈ 0.69 µM)
- MIC50 ([2]; Staphylococcus aureus, MRSA): 0.5 µg/mL (≈ 0.345 µM)
- MIC90 ([2]; Staphylococcus aureus, MRSA): 1 µg/mL (≈ 0.69 µM)
- MIC50 ([6]; Staphylococcus epidermidis): 1 µg/mL (≈ 0.69 µM)
- MIC90 ([6]; Staphylococcus epidermidis): 2 µg/mL (≈ 1.38 µM)
- MIC50 ([7]; Enterococcus faecium): > 64 µg/mL
- MIC90 ([7]; Enterococcus faecium): > 64 µg/mL
- MIC50 ([8]; Enterococcus faecium): 64 µg/mL (≈ 44.2 µM)
- MIC90 ([8]; Enterococcus faecium): > 64 µg/mL
- MIC50 ([9]; Enterococcus faecalis): > 64 µg/mL
- MIC90 ([9]; Enterococcus faecalis): > 64 µg/mL
- MIC50 ([10]; Enterococcus faecalis): > 64 µg/mL
- MIC90 ([10]; Enterococcus faecalis): > 64 µg/mL
- MIC50 ([11]; Staphylococcus aureus): 1 µg/mL (≈ 0.69 µM)
- MIC90 ([11]; Staphylococcus aureus): 4 µg/mL (≈ 2.76 µM)
- MIC50 (VanC enterococci (22)): 4 µg/mL (≈ 2.76 µM)
- MIC90 (VanC enterococci (22)): 4 µg/mL (≈ 2.76 µM)
- MIC50 ([13]; Enterococcus faecium): 0.5 µg/mL (≈ 0.345 µM)
- MIC90 ([13]; Enterococcus faecium): 1 µg/mL (≈ 0.69 µM)
- MIC50 ([14]; Enterococcus faecalis): 1 µg/mL (≈ 0.69 µM)
- MIC90 ([14]; Enterococcus faecalis): 2 µg/mL (≈ 1.38 µM)

Molecule: Teicoplanin [reference compound]
- MIC 50% [1]: 0.5 µg/mL
- MIC 90% [1]: 1 µg/mL
- MIC 50% [2]: 0.5 µg/mL
- MIC 90% [2]: 0.5 µg/mL
- MIC 50% (S. pneumoniae (22)): 0.12 µg/mL
- MIC 90% (S. pneumoniae (22)): 0.12 µg/mL
- MIC 50% [6]: 2 µg/mL
- MIC 90% [6]: 4 µg/mL
- MIC 50% [7]: 64 µg/mL
- MIC 90% [7]: >64 µg/mL
- MIC 50% [8]: 1 µg/mL
- MIC 90% [8]: 1 µg/mL
- MIC 50% [9]: 64 µg/mL
- MIC 90% [9]: >64 µg/mL
- MIC 50% [10]: 0.5 µg/mL
- MIC 90% [10]: 1 µg/mL
- MIC 50% [11]: 0.5 µg/mL
- MIC 90% [11]: 8 µg/mL
- MIC 50% [12]: 0.12 µg/mL
- MIC 90% [12]: 0.25 µg/mL
- MIC 50% (VanC enterococci (22)): 1 µg/mL
- MIC 90% (VanC enterococci (22)): 2 µg/mL
- MIC 50% [13]: 1 µg/mL
- MIC 90% [13]: 1 µg/mL
- MIC 50% [14]: 0.5 µg/mL
- MIC 90% [14]: 0.5 µg/mL
